Experimental data as given in patent publication US20140005163A1 (NOVARTIS AG, priority 2010, published 2014).
Values after ≈ are worked out from the molar mass of the structure shown. Where two headings read alike, the source gives them in different places. Each block holds one compound with its values, some of them ahead of it.

What was measured:
[1] = test system: PKB Ser473 phosphorylation in Rat1-myr-HA-p110 alpha cells; test: Reverse protein array assay, PKB Ser473 phosphorylation in Rat1-myr-p110 alpha cells; format: cell-based; conditions: 0.5 h, pAkt Ser473, 30 minutes compound incubation, read-out: p-PKB IC50
Outline: (§1)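 Lysates were arrayed at four dilutions, and phospho-PKB Ser473 was quantified by relative fluorescence signal. They came from Rat1-myr-HA-p110 alpha, beta or delta cells exposed for 30 min at 37 °C to an 8-point compound series with 0.2% DMSO constant.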

[2] = biological target: T1, PI3K delta (Homo sapiens, UniProt O00329); test: PI3K delta kinase assay (Kinase-Glo luminescence); format: biochemical
T1 construct: for the full-length p110-d subunit are generated and fused by overlapping PCR; p85(iSH2) fusion partner (see partner chain) (N); His tag (C); made in house; host or cells: baculovirus; Tn5 (Trichoplusia ni) or TiniPro insect cells
T1 sequence (O00329 with tags, fused parts or gaps limits assumed): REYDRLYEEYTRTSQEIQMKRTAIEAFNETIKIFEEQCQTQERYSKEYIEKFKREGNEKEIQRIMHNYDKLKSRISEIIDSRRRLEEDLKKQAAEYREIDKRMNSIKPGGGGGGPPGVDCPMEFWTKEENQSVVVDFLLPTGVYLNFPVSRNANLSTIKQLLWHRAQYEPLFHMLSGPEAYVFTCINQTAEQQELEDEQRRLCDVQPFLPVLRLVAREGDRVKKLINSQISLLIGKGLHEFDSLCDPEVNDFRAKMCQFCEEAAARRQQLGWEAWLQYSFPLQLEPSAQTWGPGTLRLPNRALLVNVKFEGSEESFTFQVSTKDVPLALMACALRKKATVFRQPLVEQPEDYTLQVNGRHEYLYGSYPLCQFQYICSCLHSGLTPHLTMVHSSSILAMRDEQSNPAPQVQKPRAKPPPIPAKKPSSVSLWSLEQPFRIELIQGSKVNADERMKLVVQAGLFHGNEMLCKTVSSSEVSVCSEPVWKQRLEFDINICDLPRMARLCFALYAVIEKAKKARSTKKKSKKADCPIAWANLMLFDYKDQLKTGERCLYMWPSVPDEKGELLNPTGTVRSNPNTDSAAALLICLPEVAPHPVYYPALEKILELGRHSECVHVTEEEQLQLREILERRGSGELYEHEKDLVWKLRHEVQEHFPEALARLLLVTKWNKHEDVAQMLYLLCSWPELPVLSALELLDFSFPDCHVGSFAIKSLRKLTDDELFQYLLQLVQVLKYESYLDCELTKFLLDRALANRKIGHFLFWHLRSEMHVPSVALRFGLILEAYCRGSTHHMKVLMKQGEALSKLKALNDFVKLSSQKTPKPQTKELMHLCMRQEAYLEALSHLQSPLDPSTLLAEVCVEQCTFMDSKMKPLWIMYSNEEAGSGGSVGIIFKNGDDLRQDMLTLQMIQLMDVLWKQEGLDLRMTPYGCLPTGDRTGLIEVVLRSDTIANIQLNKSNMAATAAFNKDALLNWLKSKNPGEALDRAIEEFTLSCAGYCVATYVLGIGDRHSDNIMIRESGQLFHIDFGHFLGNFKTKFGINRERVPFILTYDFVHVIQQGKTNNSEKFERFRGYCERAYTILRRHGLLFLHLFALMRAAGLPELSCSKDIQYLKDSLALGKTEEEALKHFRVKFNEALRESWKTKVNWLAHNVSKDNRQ
Outline: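 Construct BV-1060, p85 iSH2–linker–full-length p110δ, His-tagged, at 10 nM, with 1 μM ATP and 10 μg/mL phosphatidylinositol in pH 7.5 Tris, 3 mM MgCl2, 50 mM NaCl, 0.05% CHAPS. Run 60 min at room temperature; remaining ATP read by Kinase-Glo luminescence; IC50 from 4-parameter logistic fit of 8 concentrations.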

[3] = Solubility at pH 6.8; format: physicochemical
Outline: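 Solubility was measured at pH 6.8 following the cited Zhou et al. (2007) procedure.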

[4] = test system: PKB Ser473 phosphorylation in Rat1-myr-HA-p110 beta cells; test: Reverse protein array assay, PKB Ser473 phosphorylation in Rat1-myr-p110 beta cells; format: cell-based; conditions: 0.5 h, pAkt Ser473, 30 minutes incubation, read-out: p-PKB IC50
Outline: as §1

[5] = pH 6.8, aqueous buffer, thermodynamic from solid, read-out: solubility

Compound: COc1ccc(-c2ccc3ncc4c(c3c2)n(-c2ccnn2C)c(=O)n4C)cc1OC [Example 1.3, 8-(3,4-Dimethoxy-phenyl)-3-methyl-1-(2-methyl-2H-pyrazol-3-yl)-1,3-dihydro-imidazo[4,5-c]quinolin-2-one]
IC50 [1]: 0.046 µM | IC50 [2]: 0.012 µM | solubility ([3]; pH 6.8): 2 µg/mL (≈ 4.81 µM) | IC50 [4]: 0.096 µM

Compound: COc1ccc(-c2ccc3ncc4c(c3c2)n(-c2cc(C)nn2C)c(=O)n4C)cn1 [Example 2.3, 1-(2,5-Dimethyl-2H-pyrazol-3-yl)-8-(6-methoxy-pyridin-3-yl)-3-methyl-1,3-dihydro-imidazo[4,5-c]quinolin-2-one]
IC50 [1]: 0.012 µM | IC50 [2]: 0.03 µM | solubility [3, 5]: 7 µg/mL (≈ 17.5 µM) | IC50 [4]: 0.116 µM

Compound: CCOc1ccc(-c2ccc3ncc4c(c3c2)n(-c2ccnn2CC)c(=O)n4C)cn1 [Example 3.4, 8-(6-Ethoxy-pyridin-3-yl)-1-(2-ethyl-2H-pyrazol-3-yl)-3-methyl-1,3-dihydro-imidazo[4,5-c]quinolin-2-one]
IC50 [1]: 0.214 µM | IC50 [2]: 0.283 µM | solubility ([3]; pH 6.8): 2 µg/mL (≈ 4.83 µM) | IC50 [4]: 0.248 µM

Compound: CCOc1ccc(-c2ccc3ncc4c(c3c2)n(-c2cnn(C)c2C)c(=O)n4C)cn1 [Example 3.6, 1-(1,5-Dimethyl-1H-pyrazol-4-yl)-8-(6-ethoxy-pyridin-3-yl)-3-methyl-1,3-dihydro-imidazo[4,5-c]quinolin-2-one]
IC50 [1]: 0.045 µM | IC50 [2]: 0.158 µM | solubility ([3]; pH 6.8): 2 µg/mL (≈ 4.83 µM) | IC50 [4]: 0.119 µM

Compound: Cc1nn(C(C)C)cc1-n1c(=O)n(C)c2cnc3ccc(-c4ccc(N(C)C)nc4)cc3c21 [Example 4.1, 8-(6-Dimethylamino-pyridin-3-yl)-1-(1-isopropyl-3-methyl-1H-pyrazol-4-yl)-3-methyl-1,3-dihydro-imidazo[4,5-c]quinolin-2-one]
IC50 [1]: 0.016 µM | IC50 [2]: 0.039 µM | solubility [3, 5]: 336 µg/mL (≈ 761 µM) | IC50 [4]: 0.019 µM

Compound: CNC(=O)c1ccc(-c2ccc3ncc4c(c3c2)n(-c2cn(C(C)C)nc2C)c(=O)n4C)cn1 [Example 15.3, 5-[1-(1-Isopropyl-3-methyl-1H-pyrazol-4-yl)-3-methyl-2-oxo-2,3-dihydro-1H-imidazo[4,5-c]quinolin-8-yl]-pyridine-2-carboxylic acid methylamide]
IC50 [1]: 0.028 µM | IC50 [2]: 0.329 µM | solubility [3, 5]: 5 µg/mL (≈ 11 µM) | IC50 [4]: 0.021 µM

Compound: Cc1nn(CC(=O)N(C)C)cc1-n1c(=O)n(C)c2cnc3ccc(-c4ccccc4)cc3c21 [Example 37.3, N,N-Dimethyl-2-[3-methyl-4-(3-methyl-2-oxo-8-phenyl-2,3-dihydro-imidazo[4,5-c]quinolin-1-yl)-pyrazol-1-yl]-acetamide]
IC50 [1]: 0.04 µM | solubility [3, 5]: 41 µg/mL (≈ 93.1 µM) | IC50 [4]: 0.235 µM

Compound: Cc1nn(CC(=O)N(C)C)c(C)c1-n1c(=O)n(C)c2cnc3ccc(-c4cncc(OC5CCC5)c4)cc3c21 [Example 60.2, 2-{4-[8-(5-Cyclobutoxy-pyridin-3-yl)-3-methyl-2-oxo-2,3-dihydro-imidazo[4,5-c]quinolin-1-yl]-3,5-dimethyl-pyrazol-1-yl}-N,N-dimethyl-acetamide]
IC50 [1]: 0.829 µM | IC50 [2]: 0.694 µM | solubility [3, 5]: 76 µg/mL (≈ 145 µM)

Compound: CCN(C)C(=O)Cn1cc(-n2c(=O)n(C)c3cnc4ccc(-c5cnc(N6CCCC6)nc5)cc4c32)c(C)n1 [Example 140.1, N-Ethyl-N-methyl-2-{3-methyl-4-[3-methyl-2-oxo-8-(2-pyrrolidin-1-yl-pyrimidin-5-yl)-2,3-dihydro-imidazo[4,5-c]quinolin-1-yl]-pyrazol-1-yl}-acetamide]
IC50 [1]: 0.084 µM | solubility [3, 5]: 36 µg/mL (≈ 68.5 µM) | IC50 [4]: 0.1 µM

The remaining lines, values ahead:

IC50 [1]: 0.009 µM | IC50 [2]: 0.005 µM | solubility [3, 5]: 10 µg/mL (≈ 23.3 µM) | IC50 [4]: 0.008 µM
Compound: COc1ccc(-c2ccc3ncc4c(c3c2)n(-c2cn(C)nc2C)c(=O)n4C)cc1OC [Example 1.8, 8-(3,4-Dimethoxy-phenyl)-1-(1,3-dimethyl-1H-pyrazol-4-yl)-3-methyl-1,3-dihydro-imidazo[4,5-c]quinolin-2-one]

IC50 [1]: 0.046 µM | IC50 [2]: 0.015 µM | solubility ([3]; pH 6.8): 2 µg/mL (≈ 4.67 µM) | IC50 [4]: 0.041 µM
Compound: COc1ccc(-c2ccc3ncc4c(c3c2)n(-c2cn(C(C)C)nc2C)c(=O)n4C)cn1 [Example 2.8, 1-(1-Isopropyl-3-methyl-1H-pyrazol-4-yl)-8-(6-methoxy-pyridin-3-yl)-3-methyl-1,3-dihydro-imidazo[4,5-c]quinolin-2-one]

IC50 [1]: 0.035 µM | IC50 [2]: 0.04 µM | solubility [3, 5]: 4 µg/mL (≈ 9.33 µM) | IC50 [4]: 0.029 µM
Compound: CCOc1ccc(-c2ccc3ncc4c(c3c2)n(-c2cn(CC)nc2C)c(=O)n4C)cn1 [Example 3.5, 8-(6-Ethoxy-pyridin-3-yl)-1-(1-ethyl-3-methyl-1H-pyrazol-4-yl)-3-methyl-1,3-dihydro-imidazo[4,5-c]quinolin-2-one]

IC50 [1]: 0.042 µM | IC50 [2]: 0.044 µM | solubility [3, 5]: 36 µg/mL (≈ 84 µM) | IC50 [4]: 0.052 µM
Compound: CCn1cc(-n2c(=O)n(C)c3cnc4ccc(-c5cnc(N(C)C)nc5)cc4c32)c(C)n1 [Example 6.4, 8-(2-Dimethylamino-pyrimidin-5-yl)-1-(1-ethyl-3-methyl-1H-pyrazol-4-yl)-3-methyl-1,3-dihydro-imidazo[4,5-c]quinolin-2-one]

IC50 [1]: 0.151 µM | IC50 [2]: 0.018 µM | solubility [3, 5]: 102 µg/mL (≈ 255 µM) | IC50 [4]: 0.07 µM
Compound: Cc1nn(C)cc1-n1c(=O)n(C)c2cnc3ccc(-c4ccc(CO)nc4)cc3c21 [Example 16.2, 1-(1,3-Dimethyl-1H-pyrazol-4-yl)-8-(6-hydroxymethyl-pyridin-3-yl)-3-methyl-1,3-dihydro-imidazo[4,5-c]quinolin-2-one]

IC50 [1]: 0.139 µM | IC50 [2]: 0.115 µM | solubility [3, 5]: 240 µg/mL (≈ 540 µM) | IC50 [4]: 0.231 µM
Compound: COCCOc1ccc(-c2ccc3ncc4c(c3c2)n(-c2cn(C)nc2C)c(=O)n4C)cn1 [Example 18, 1-(1,3-Dimethyl-1H-pyrazol-4-yl)-8-[6-(2-methoxy-ethoxy)-pyridin-3-yl]-3-methyl-1,3-dihydro-imidazo[4,5-c]quinolin-2-one]

IC50 [1]: 0.017 µM | IC50 [2]: 0.017 µM | solubility ([3]; pH 6.8): 2 µg/mL (≈ 4.24 µM) | IC50 [4]: 0.021 µM
Compound: CCOc1ccc(-c2ccc3ncc4c(c3c2)n(-c2cn(CC)nc2C)c(=O)n4C)cc1OCC [Example 27.1, 8-(3,4-Diethoxy-phenyl)-1-(1-ethyl-3-methyl-1H-pyrazol-4-yl)-3-methyl-1,3-dihydro-imidazo[4,5-c]quinolin-2-one]

IC50 [1]: 0.007 µM | IC50 [2]: 0.006 µM | solubility [3, 5]: 9 µg/mL (≈ 19.7 µM) | IC50 [4]: 0.029 µM
Compound: CCOc1cc(-c2ccc3ncc4c(c3c2)n(-c2cn(CC)nc2C)c(=O)n4C)ccc1OC [Example 28.1, 8-(3-Ethoxy-4-methoxy-phenyl)-1-(1-ethyl-3-methyl-1H-pyrazol-4-yl)-3-methyl-1,3-dihydro-imidazo[4,5-c]quinolin-2-one]

IC50 [1]: 0.076 µM | IC50 [2]: 0.053 µM | solubility [3, 5]: 3 µg/mL (≈ 6.56 µM) | IC50 [4]: 0.125 µM
Compound: CCOc1cc(-c2ccc3ncc4c(c3c2)n(-c2c(C)nn(C)c2C)c(=O)n4C)ccc1OC [Example 28.2, 8-(3-Ethoxy-4-methoxy-phenyl)-3-methyl-1-(1,3,5-trimethyl-1H-pyrazol-4-yl)-1,3-dihydro-imidazo[4,5-c]quinolin-2-one]

IC50 [1]: 0.009 µM | IC50 [2]: 0.042 µM | solubility ([3]; pH 6.8): 2 µg/mL (≈ 4.51 µM) | IC50 [4]: 0.015 µM
Compound: CCOc1cc(-c2ccc3ncc4c(c3c2)n(-c2cn(C)nc2C)c(=O)n4C)ccc1OC [Example 28.3, 1-(1,3-Dimethyl-1H-pyrazo1-4-yl)-8-(3-ethoxy-4-methoxy-phenyl)-3-methyl-1,3-dihydro-imidazo[4,5-c]quinolin-2-one]

IC50 [1]: 0.008 µM | IC50 [2]: 0.04 µM | solubility ([3]; pH 6.8): 2 µg/mL (≈ 4.51 µM) | IC50 [4]: 0.015 µM
Compound: CCOc1ccc(-c2ccc3ncc4c(c3c2)n(-c2cn(C)nc2C)c(=O)n4C)cc1OC [Example 29.3, 1-(1,3-Dimethyl-1H-pyrazol-4-yl)-8-(4-ethoxy-3-methoxy-phenyl)-3-methyl-1,3-dihydro-imidazo[4,5-c]quinolin-2-one]

IC50 [1]: 0.044 µM | IC50 [2]: 0.042 µM | solubility [3, 5]: 9 µg/mL (≈ 18.5 µM) | IC50 [4]: 0.043 µM
Compound: CCn1cc(-n2c(=O)n(C)c3cnc4ccc(-c5ccc(OCCOC)c(OC)c5)cc4c32)c(C)n1 [Example 30.2, 1-(1-Ethyl-3-methyl-1H-pyrazol-4-yl)-8-[3-methoxy-4-(2-methoxy-ethoxy)-phenyl]-3-methyl-1,3-dihydro-imidazo[4,5-c]quinolin-2-one]

IC50 [1]: 0.085 µM | IC50 [2]: 0.047 µM | solubility ([3]; pH 6.8): 2 µg/mL (≈ 5.19 µM) | IC50 [4]: 0.11 µM
Compound: Cc1nn(C)cc1-n1c(=O)n(C)c2cnc3ccc(-c4cccc(O)c4)cc3c21 [Example 32.1, 1-(1,3-Dimethyl-1H-pyrazol-4-yl)-8-(3-hydroxy-phenyl)-3-methyl-1,3-dihydro-imidazo[4,5-c]quinolin-2-one]

IC50 [1]: 0.026 µM | solubility [3, 5]: 164 µg/mL (≈ 361 µM) | IC50 [4]: 0.118 µM
Compound: CCN(C)C(=O)Cn1cc(-n2c(=O)n(C)c3cnc4ccc(-c5ccccc5)cc4c32)c(C)n1 [Example 135, N-Ethyl-N-methyl-2-[3-methyl-4-(3-methyl-2-oxo-8-phenyl-2,3-dihydro-imidazo[4,5-c]quinolin-1-yl)-pyrazol-1-yl]-acetamide]
